What is called EC50 is the concentration needed to bring the measured effect to its halfway point.

The subject of one test is ring stage parasites (Pf). In words: Parasite lactate dehydrogenase (LDH) growth assay (Parasite Assay, PfLDH Assay). The test is classed as cell-based, P. falciparum. As to conditions: Plasmodium falciparum, 72 h, Table 3; 72 hours growth, LDH readout; read-out: EC50.
Turning to `COCC[C@H]([C@H]1C[C@@H]1C(=O)N[C@H]1CC(C)(C)Oc2cccc(Cl)c21)N1C(=N)NC(C)(C)CC1=O` [Example 116A], the EC50 was 0.8 nM.
Same read-out and setting: for `CCC1(CC)CC(=O)N([C@H](c2cccnc2)[C@H]2C[C@@H]2C(=O)N[C@@H]2c3ccccc3OC(C)(C)[C@H]2O)C(=N)N1` [Example 11A] the value was 4.1 nM; for `COCC[C@H]([C@H]1C[C@@H]1C(=O)N[C@H]1CC(C)(C)Oc2ccccc21)N1C(=N)N[C@](C)(C(C)C)CC1=O` [Example 20], 5.3 nM; for `COCC[C@H]([C@H]1C[C@@H]1C(=O)N[C@H]1C[C@@H](C(F)(F)F)Oc2ccccc21)N1C(=N)N[C@](C)(C(C)C)CC1=O` [Example 21A], 260 nM.
On the same count and under the same terms, as for `COCC[C@H]([C@H]1C[C@@H]1C(=O)N[C@H]1CC(C)(C)Oc2cc(Cl)ccc21)N1C(=N)NC(C)(C)CC1=O` [Example 89A], the figure is 5.6 nM.
The same measure, in the same setting: for `COCC[C@H]([C@H]1C[C@@H]1C(=O)N[C@H]1CC(C)(C)Oc2c(C(F)(F)F)ccc(F)c21)N1C(=N)NC(C)(C)CC1=O` [Example 114B] the value was 5.1 nM; for `CCC1(CC)CC(=O)N([C@H](CCOC)[C@H]2C[C@@H]2C(=O)N[C@H]2C[C@@H](C(F)(F)F)Oc3ccccc32)C(=N)N1` [Example 14], 0.9 nM; for `COCC[C@H]([C@H]1C[C@@H]1C(=O)N[C@@H]1CC(C)(C)Oc2c(F)cc(F)cc21)N1C(=N)NC(C)(C)CC1=O` [Example 113A], 19 nM.
With `COc1ccc([C@H]([C@H]2C[C@@H]2C(=O)N[C@@H]2c3ccccc3OC(C)(C)[C@H]2O)N2C(=N)NC(C)(C)CC2=O)cn1` [Example 39], the concentration for a half-maximal effect (EC50) was 10.1 nM.
Regarding `CC1(C)CC(=O)N(C[C@H]2C[C@@H]2C(=O)N[C@H]2CC(C)(C)Oc3cc(Cl)ccc32)C(=N)N1` [Example 90], the EC50 came to 225 nM.
Same read-out and setting: for `COCC[C@H]([C@H]1C[C@@H]1C(=O)N[C@@H]1C[C@@H](C(F)(F)F)Oc2ccccc21)N1C(=N)NC(C)(C)CC1=O` [Example 24B] the value was 2 nM; for `CC1(C)CC(=O)N([C@H](c2cccnc2)[C@H]2C[C@@H]2C(=O)N[C@H]2CC(C)(C)Oc3cc(Cl)ccc32)C(=N)N1` [Example 91B], 2.7 nM; for `COCC[C@H]([C@H]1C[C@@H]1C(=O)N[C@H]1CC(C)(C)Oc2cc(C)c(C)cc21)N1C(=N)NC(C)(C)CC1=O` [Example 138A], 7.4 nM.
With `CC1(C)CC(=O)N(C[C@H]2C[C@@H]2C(=O)N[C@H]2CC3(CCC3)Oc3ccccc32)C(=N)N1` [Example 135], the half-maximal effective concentration (EC50) was 190 nM.
The same measure, in the same setting: for `CCC1(CC)CC(=O)N(CC2C(C(=O)N[C@H]3C[C@H](C(F)(F)F)Oc4ccccc43)C2(C)C)C(=N)N1` (stereo partly shown) [Example 31B] the value was 213 nM; for `CCC1(CC)CC(=O)N([C@H](c2cccnc2)[C@H]2C[C@@H]2C(=O)N[C@H]2c3ccccc3OC(C)(C)[C@H]2O)C(=N)N1` [Example 11B], 24 nM; for `CCC1(CC)CC(=O)N(C[C@H]2C[C@@H]2C(=O)N[C@H]2CC(C)(C)Oc3ccccc32)C(=N)N1` [Example 5], 49 nM.
Same read-out and setting: for `COCC[C@H]([C@H]1C[C@@H]1C(=O)N[C@H]1CC(C)(C)Oc2ccc(F)cc21)N1C(=N)NC(C)(C)CC1=O` [Example 72B] the value was 2.5 nM.
On the same count and under the same terms, for `COCC[C@H]([C@H]1C[C@@H]1C(=O)N[C@H]1CC(C)(C)Oc2cccc(OC(F)(F)F)c21)N1C(=N)NC(C)(C)CC1=O` [Example 107A] the value was 2.1 nM.
Turning to `CC1(C)CC(=O)N([C@@H](c2ccc(C#N)cc2)[C@H]2C[C@@H]2C(=O)N[C@H]2C[C@H](C(F)(F)F)Oc3ccccc32)C(=N)N1` [Example 47A], the EC50 is 155 nM.
Same read-out and setting: for `COCC[C@H]([C@H]1C[C@@H]1C(=O)N[C@@H]1CC(C)(C)Oc2cccc(OC)c21)N1C(=N)NC(C)(C)CC1=O` [Example 74A] the value was 33 nM; for `CC1(C)CC(=O)N(C[C@H]2C[C@@H]2C(=O)N[C@H]2CC(C)(C)Oc3cccc(OC(F)(F)F)c32)C(=N)N1` [Example 118], 63 nM; for `CCC1(CC)CC(NC(=O)[C@H]2C[C@@H]2[C@@H](CCOC)N2C(=N)NC(C)(C)CC2=O)c2ccccc2O1` (stereo partly shown) [Example 92A], 7.6 nM.
For the molecule `CCC1(CC)CC(=O)N([C@H](c2cccnc2)[C@@H]2[C@@H](C(=O)N[C@H]3C[C@H](C(F)(F)F)Oc4ccccc43)C2(C)C)C(=N)N1` [Example 44B], the EC50 amounted to 0.9 nM.

Staying with this test, now noted: Plasmodium falciparum, 72 h, Table 4; 72 hours growth, LDH readout; read-out: EC50 (Table 4).
As to `CCC1(CC)CC(=O)N([C@H](CCOC)[C@H]2C[C@@H]2C(=O)N[C@@H]2c3ccccc3OC(C)(C)[C@H]2O)C(=N)N1` [Example 145], the EC50 came to 8.4 nM.

The test is the same for the next values; noted with them: Table 3; 72 hours growth, LDH readout; read-out: EC50.
Take `COCC1(C)CC(NC(=O)[C@H]2C[C@@H]2[C@@H](c2cccnc2)N2C(=N)NC(C)(C)CC2=O)c2ccccc2O1` (single isomer, unassigned) [Example 108C]: the half-maximal effective concentration (EC50) came out at 6 nM.
Consider `COCC[C@H]([C@H]1C[C@@H]1C(=O)NC1CC(C)(COC)Oc2ccccc21)N1C(=N)NC(C)(C)CC1=O` (single isomer, unassigned) [Example 82D], for which the EC50 amounted to 27 nM.
Consider `COCC[C@H]([C@H]1C[C@@H]1C(=O)NC1CC(C)(C)Oc2cc(OC(F)(F)F)ccc21)N1C(=N)NC(C)(C)CC1=O` (single isomer, unassigned) [Example 134A], for which the half-maximal effective concentration (EC50) stood at 71 nM.
Turning to `COCC[C@H]([C@H]1C[C@@H]1C(=O)NC1CC(C)(C(C)C)Oc2ccccc21)N1C(=N)NC(C)(C)CC1=O` (single isomer, unassigned) [Example 80D], the concentration giving a half-maximal response (EC50) was 21 nM.
Same read-out and setting: for `COCC[C@H]([C@H]1C[C@@H]1C(=O)NC1CC(C)(C)Oc2cc(F)ccc21)N1C(=N)NC(C)(C)CC1=O` (stereo partly shown) [Example 76B] the value was 15 nM; for `CCC1(CC)CC(NC(=O)[C@H]2C[C@@H]2[C@@H](CCOC)N2C(=N)NC(C)(C)CC2=O)c2ccccc2O1` (stereo partly shown) [Example 92B], 7.2 nM.
Still for that read-out and setting: for `CC[C@]1(C)CC(=O)N([C@H](CCOC)[C@H]2C[C@@H]2C(=O)NC2CC(C)(C)Oc3ccc(F)cc32)C(=N)N1` (single isomer, unassigned) [Example 130A] the value was 0.9 nM; for `CCC1(C)CC(NC(=O)[C@H]2C[C@@H]2[C@@H](c2cccnc2)N2C(=N)NC(C)(C)CC2=O)c2ccccc2O1` (single isomer, unassigned) [Example 105D], 0.9 nM.
On to `COCC[C@H]([C@H]1C[C@@H]1C(=O)NC1CC(C)(C)Oc2c(Cl)cccc21)N1C(=N)NC(C)(C)CC1=O` (stereo partly shown) [Example 112B], for which the 50% effective concentration (EC50) is 9.4 nM.
On the same count and under the same terms, for `COCC[C@H]([C@H]1C[C@@H]1C(=O)NC1CC(C)(C(C)C)Oc2ccccc21)N1C(=N)NC(C)(C)CC1=O` (single isomer, unassigned) [Example 80C] the value was 14 nM; for `CC1(C)CC(=O)N([C@H](c2cccnc2)[C@H]2C[C@@H]2C(=O)NC2CC(C)(C)Oc3cc(F)ccc32)C(=N)N1` (stereo partly shown) [Example 77B], 2.3 nM; for `CCC1(CC)CC(=O)N(C[C@H]2C[C@@H]2C(=O)N[C@H]2c3ccccc3C[C@@H]2O)C(=N)N1` [Example 6B], 269 nM.
Same read-out and setting: for `COCC[C@H]([C@H]1C[C@@H]1C(=O)NC1CC(C)(COC)Oc2ccccc21)N1C(=N)NC(C)(C)CC1=O` (single isomer, unassigned) [Example 82C] the value was 53 nM; for `CCC1(CC)CC(=O)N(C[C@H]2C(C)[C@@H]2C(=O)N[C@@H]2c3ccccc3OC(C)(C)[C@H]2O)C(=N)N1` (single isomer, unassigned) [Example 30A], 45 nM; for `CC1(C)CC(=O)N([C@H](c2cccnc2)[C@H]2C[C@@H]2C(=O)NC2CC(C)(C)Oc3ccc(C(F)(F)F)cc32)C(=N)N1` (single isomer, unassigned) [Example 109B], 1 nM.
Still for that read-out and setting: as for `CC[C@]1(C)CC(=O)N([C@H](CCOC)[C@H]2C[C@@H]2C(=O)NC2CC(C)(C)Oc3ccc(C(F)(F)F)cc32)C(=N)N1` (single isomer, unassigned) [Example 127B], the figure is 2.6 nM; as for `CCC1C[C@H](NC(=O)[C@H]2C[C@@H]2CN2C(=N)NC(C)(C)CC2=O)c2ccccc2O1` (single isomer, unassigned) [Example 133A], 210 nM; as for `CC1(C)CC(=O)N(C[C@H]2C[C@@H]2C(=O)NC2CC(C)(C)Oc3c(Cl)cc(Cl)cc32)C(=N)N1` (stereo partly shown) [Example 97B], 220 nM.
With `CC[C@]1(C)CC(=O)N([C@H](CCOC)[C@H]2C[C@@H]2C(=O)NC2CC(C)(C)Oc3ccc(F)cc32)C(=N)N1` (single isomer, unassigned) [Example 130B], the EC50 turned out to be 2.4 nM.
Take `CCC1(C)CC(NC(=O)[C@H]2C[C@@H]2[C@@H](c2cccnc2)N2C(=N)NC(C)(C)CC2=O)c2ccccc2O1` (single isomer, unassigned) [Example 105C]: the EC50 worked out at 0.8 nM.
Same read-out and setting: for `COCC[C@H]([C@H]1C[C@@H]1C(=O)NC1CC(C)(C)Oc2ccc(OC(F)(F)F)cc21)N1C(=N)NC(C)(C)CC1=O` (stereo partly shown) [Example 126B] the value was 8.4 nM.
The same measure, in the same setting: for `COCC[C@H]([C@H]1C[C@@H]1C(=O)NC1CC(C)(C)Oc2cc(OC(F)(F)F)ccc21)N1C(=N)NC(C)(C)CC1=O` (single isomer, unassigned) [Example 134B] the value was 25 nM; for `CC[C@]1(C)CC(=O)N(C(c2cncc(F)c2)[C@H]2C[C@@H]2C(=O)NC2c3ccccc3OC(C(F)(F)F)C2O)C(=N)N1` (single isomer, unassigned) [Example 104B], 22 nM.

Staying with this test, now noted: Table 4; 72 hours growth, LDH readout; read-out: EC50 (Table 4).
Consider `CCC1(CC)CC(=O)N([C@H](CCOC)[C@H]2C[C@@H]2C(=O)NC2CC(C)(C)Oc3cc(Cl)ccc32)C(=N)N1` (single isomer, unassigned) [Example 147B], for which the EC50 worked out at 8.2 nM.
